Laboratory results as given in the supplement of paper PMC13380429.

Tests used:
[1] = tested on: A549-ACE2 infected with SARS-CoV-2; experiment: morphology score (similarity to uninfected cells); higher = more like uninfected cells; conditions: 24 h
[2] = tested on: Vero E6; experiment: cell viability relative to DMSO; higher = less toxic; conditions: 72 h
[3] = tested on: U2OS; experiment: as above; conditions: 72 h
[4] = tested on: Calu-3; experiment: as above; conditions: 72 h
[5] = tested on: HepG2; experiment: as above; conditions: 72 h
[6] = tested on: Caco-2; experiment: as above; conditions: 72 h
[7] = tested on: U2OS; experiment: relative viability EC50 (midpoint between 100% and the lowest measured viability); higher = less toxic; conditions: 72 h
[8] = tested on: HepG2; experiment: as above; conditions: 72 h
[9] = tested on: Vero E6; experiment: drug sensitivity score (DSS) for viability; higher = more toxic; extreme values may be limits of the assay; conditions: 72 h
[10] = tested on: U2OS; experiment: as above; conditions: 72 h
[11] = tested on: Calu-3; experiment: as above; conditions: 72 h
[12] = tested on: HepG2; experiment: as above; conditions: 72 h
[13] = tested on: Caco-2; experiment: as above; conditions: 72 h
[14] = tested on: A549-ACE2; experiment: drug-induced phospholipidosis relative to tamoxifen; higher = more phospholipidosis
[15] = tested on: A549-ACE2 infected with SARS-CoV-2; experiment: SARS-CoV-2 infection rate relative to DMSO; higher = more infection; conditions: 24 h
[16] = tested on: A549-ACE2 infected with SARS-CoV-2; experiment: cell count relative to DMSO; higher = less toxic; conditions: 24 h
[17] = tested on: A549-ACE2; experiment: phospholipidosis EC50; higher = less potent phospholipidosis inducer
[18] = tested on: Vero E6; experiment: relative viability EC50 (midpoint between 100% and the lowest measured viability); higher = less toxic; conditions: 72 h
[19] = tested on: Calu-3; experiment: as above; conditions: 72 h
[20] = tested on: Caco-2; experiment: as above; conditions: 72 h

Cn1cc(-c2ccc3c(c2)CCN3C(=O)Cc2cccc(C(F)(F)F)c2)c2c(N)ncnc21
Conditions | SARS-CoV-2 infection rate, [15] [%] | cell count, [16] [%] | cell viability, [2] [%] | cell viability, [3] [%] | cell viability, [4] [%] | cell viability, [5] [%] | cell viability, [6] [%] | morphology score, [1]
1 nM | – | – | 95.3 | 103 | 106 | 87.4 | 100 | –
10 nM | – | – | 94 | 97.4 | 94 | 98.3 | 86.6 | –
0.1 µM | 102 | 97 | – | – | – | – | – | 0.02
100 nM | – | – | 96.6 | 102 | 96 | 84 | 66.9 | –
0.3 µM | 96 | 104 | – | – | – | – | – | 0.18
1 µM | 102 | 105 | – | – | – | – | – | 0.12
1000 nM | – | – | 107 | 95.2 | 92.5 | 101 | 103 | –
3 µM | 87 | 112 | – | – | – | – | – | 0.4
10000 nM | – | – | 67.1 | 77.3 | 68.9 | 48.6 | 61.6 | –

Conditions | drug sensitivity score | relative viability EC50 [µM]
[7] | – | > 10
[8] | – | 3.28
[9] | 1.2 | –
[10] | 1.5 | –
[11] | 2.4 | –
[12] | 2.6 | –
[13] | 4.7 | –

drug-induced phospholipidosis [%], [14]
Conditions | 0.3 µM | 0.833333 µM | 3.33333 µM | 6.66667 µM | 10 µM | 30 µM
24 h | 1.57 | 0.73 | 1.92 | 3.67 | 12.1 | 28.6
48 h | 3.63 | 1.52 | 3.02 | 3.48 | 8.65 | 18.6
72 h | 2.2 | 0.314 | 1.31 | 3.34 | 7.89 | 22.2

CN1CCC[C@@H](CC2c3ccccc3Sc3ccccc32)C1 (racemic) [metixene]
Conditions | SARS-CoV-2 infection rate [%] | cell count [%] | cell viability [%] | morphology score | phospholipidosis EC50 [µM]
[1], 0.1 µM | – | – | – | 0.09 | –
[1], 0.3 µM | – | – | – | -0.03 | –
[1], 1 µM | – | – | – | 0.65 | –
[1], 3 µM | – | – | – | 0.88 | –
[2], 1 nM | – | – | 96.6 | – | –
[2], 10 nM | – | – | 109 | – | –
[2], 100 nM | – | – | 105 | – | –
[2], 1000 nM | – | – | 101 | – | –
[2], 10000 nM | – | – | 74 | – | –
[3], 1 nM | – | – | 105 | – | –
[3], 10 nM | – | – | 95.3 | – | –
[3], 100 nM | – | – | 99.4 | – | –
[3], 1000 nM | – | – | 93.2 | – | –
[3], 10000 nM | – | – | 89.8 | – | –
[4], 1 nM | – | – | 102 | – | –
[4], 10 nM | – | – | 100 | – | –
[4], 100 nM | – | – | 100 | – | –
[4], 1000 nM | – | – | 100 | – | –
[4], 10000 nM | – | – | 73.1 | – | –
[5], 1 nM | – | – | 104 | – | –
[5], 10 nM | – | – | 104 | – | –
[5], 100 nM | – | – | 105 | – | –
[5], 1000 nM | – | – | 101 | – | –
[5], 10000 nM | – | – | 72.3 | – | –
[6], 1 nM | – | – | 85.9 | – | –
[6], 10 nM | – | – | 94.5 | – | –
[6], 100 nM | – | – | 94.7 | – | –
[6], 1000 nM | – | – | 120 | – | –
[6], 10000 nM | – | – | 71.9 | – | –
[15], 0.1 µM | 94 | – | – | – | –
[15], 0.3 µM | 103 | – | – | – | –
[15], 1 µM | 65 | – | – | – | –
[15], 3 µM | 30 | – | – | – | –
[16], 0.1 µM | – | 106 | – | – | –
[16], 0.3 µM | – | 99 | – | – | –
[16], 1 µM | – | 110 | – | – | –
[16], 3 µM | – | 129 | – | – | –
[17], 24 h | – | – | – | – | 5.44
[17], 48 h | – | – | – | – | 9.46
[17], 72 h | – | – | – | – | 4.98

Conditions | drug sensitivity score | relative viability EC50 [µM]
[7] | – | > 10
[9] | 0.9 | –
[10] | 0 | –
[11] | 1.1 | –
[12] | 1.1 | –
[13] | 0.6 | –

drug-induced phospholipidosis [%], [14]
Conditions | 0.3 µM | 0.833333 µM | 3.33333 µM | 6.66667 µM | 10 µM | 30 µM
24 h | 0.41 | 9.1 | 52.9 | 78.2 | 91.4 | 121
48 h | 4.61 | 5.46 | 39.9 | 75.4 | 93.7 | 145
72 h | 4.08 | 3.27 | 28.5 | 66.5 | 82.7 | –

NCCc1c[nH]c2ccc(C(N)=O)cc12 [5-carboxamidotryptamine]
Conditions | SARS-CoV-2 infection rate, [15] [%] | cell count, [16] [%] | cell viability, [2] [%] | cell viability, [3] [%] | cell viability, [4] [%] | cell viability, [5] [%] | cell viability, [6] [%] | morphology score, [1]
1 nM | – | – | 98.8 | 101 | 93.2 | 105 | 97.8 | –
10 nM | – | – | 104 | 97.8 | 104 | 96.2 | 96.5 | –
100 nM | – | – | 103 | 99.1 | 96 | 95.2 | 102 | –
0.3 µM | 100 | 98 | – | – | – | – | – | -0.09
1000 nM | – | – | 97.4 | 98 | 104 | 102 | 102 | –
3 µM | 99 | 96 | – | – | – | – | – | -0.06
10 µM | 101 | 105 | – | – | – | – | – | -0.11
10000 nM | – | – | 97.2 | 99.5 | 102 | 98.9 | 98.7 | –
30 µM | 93 | 102 | – | – | – | – | – | 0.09

Conditions | drug sensitivity score | relative viability EC50 [µM]
[7] | – | > 10
[8] | – | > 10
[9] | 0 | –
[10] | 0 | –
[11] | 0 | –
[12] | 0 | –
[13] | 0 | –
[18] | – | > 10
[19] | – | > 10
[20] | – | > 10

drug-induced phospholipidosis [%], [14]
Conditions | 0.3 µM | 0.833333 µM | 3.33333 µM | 6.66667 µM | 10 µM | 30 µM
24 h | 1.09 | -2.6 | -3.13 | -2 | -0.66 | 2.03
48 h | 2.16 | -0.39 | 0.18 | -1.08 | -0.13 | 2.67
72 h | 3.22 | -1.61 | -0.768 | -1.96 | 0.562 | 3.08

CCN(CC)CCCCN1c2ccccc2Oc2ccc(Cl)cc21 [10-DEBC]
Conditions | SARS-CoV-2 infection rate [%] | cell count [%] | cell viability [%] | morphology score | phospholipidosis EC50 [µM]
[1], 0.1 µM | – | – | – | -0.05 | –
[1], 0.3 µM | – | – | – | 0.39 | –
[1], 1 µM | – | – | – | 0.55 | –
[1], 3 µM | – | – | – | 0.9 | –
[2], 1 nM | – | – | 99.5 | – | –
[2], 10 nM | – | – | 97.4 | – | –
[2], 100 nM | – | – | 93.7 | – | –
[2], 1000 nM | – | – | 92.6 | – | –
[2], 10000 nM | – | – | 63 | – | –
[3], 1 nM | – | – | 100 | – | –
[3], 10 nM | – | – | 96.4 | – | –
[3], 100 nM | – | – | 94.7 | – | –
[3], 1000 nM | – | – | 93.3 | – | –
[3], 10000 nM | – | – | 80.1 | – | –
[4], 1 nM | – | – | 112 | – | –
[4], 10 nM | – | – | 105 | – | –
[4], 100 nM | – | – | 110 | – | –
[4], 1000 nM | – | – | 103 | – | –
[4], 10000 nM | – | – | 39 | – | –
[5], 1 nM | – | – | 90.3 | – | –
[5], 10 nM | – | – | 103 | – | –
[5], 100 nM | – | – | 87.4 | – | –
[5], 1000 nM | – | – | 88.7 | – | –
[5], 10000 nM | – | – | 45.3 | – | –
[6], 1 nM | – | – | 93.2 | – | –
[6], 10 nM | – | – | 99.6 | – | –
[6], 100 nM | – | – | 100 | – | –
[6], 1000 nM | – | – | 102 | – | –
[6], 10000 nM | – | – | 66.1 | – | –
[15], 0.1 µM | 109 | – | – | – | –
[15], 0.3 µM | 87 | – | – | – | –
[15], 1 µM | 76 | – | – | – | –
[15], 3 µM | 55 | – | – | – | –
[16], 0.1 µM | – | 107 | – | – | –
[16], 0.3 µM | – | 103 | – | – | –
[16], 1 µM | – | 107 | – | – | –
[16], 3 µM | – | 127 | – | – | –
[17], 24 h | – | – | – | – | 3.06
[17], 48 h | – | – | – | – | 3.97
[17], 72 h | – | – | – | – | 4.34

Conditions | drug sensitivity score | relative viability EC50 [µM]
[7] | – | > 10
[8] | – | 1.76
[9] | 3 | –
[10] | 0.8 | –
[11] | 3.1 | –
[12] | 4.7 | –
[13] | 1.4 | –
[19] | – | 3.43

drug-induced phospholipidosis [%], [14]
Conditions | 0.3 µM | 0.833333 µM | 3.33333 µM | 6.66667 µM | 10 µM
24 h | 0.51 | 1.58 | 47.7 | 76.9 | 81.2
48 h | 1.97 | 2.56 | 41 | 88.5 | 101
72 h | 2.46 | 1.09 | 30.1 | 85.5 | 98.7
